In patent publication US20070275961A1, “Triazolo ' 1, 5-A ! Pyrimidines and Their Use in Medicine” (VERNALIS (CAMBRIDGE) LIMITED., priority 2003, published 2007):
Like-named read-outs stand apart in the source and are kept apart here.

Assays:
Format in all cases: biochemical
[1] = target: CDK2 enzyme, complexed with cyclin A (Homo sapiens, UniProt P24941); test: CDK2 cyclin dependent kinase assay, phosphorylation of synthetic peptide […] (33P-ATP filtration); conditions: 0.1 mM ATP
PDK1 enzyme = target: T1, PDK1 enzyme (Homo sapiens, UniProt O15530); test: PDK1 3'-phosphoinositide-dependent kinase assay, phosphorylation of synthetic peptide (33P-ATP filtration); conditions: 0.01 mM ATP, read-out: PDK1 IC50
T1 sequence (O15530 1-556): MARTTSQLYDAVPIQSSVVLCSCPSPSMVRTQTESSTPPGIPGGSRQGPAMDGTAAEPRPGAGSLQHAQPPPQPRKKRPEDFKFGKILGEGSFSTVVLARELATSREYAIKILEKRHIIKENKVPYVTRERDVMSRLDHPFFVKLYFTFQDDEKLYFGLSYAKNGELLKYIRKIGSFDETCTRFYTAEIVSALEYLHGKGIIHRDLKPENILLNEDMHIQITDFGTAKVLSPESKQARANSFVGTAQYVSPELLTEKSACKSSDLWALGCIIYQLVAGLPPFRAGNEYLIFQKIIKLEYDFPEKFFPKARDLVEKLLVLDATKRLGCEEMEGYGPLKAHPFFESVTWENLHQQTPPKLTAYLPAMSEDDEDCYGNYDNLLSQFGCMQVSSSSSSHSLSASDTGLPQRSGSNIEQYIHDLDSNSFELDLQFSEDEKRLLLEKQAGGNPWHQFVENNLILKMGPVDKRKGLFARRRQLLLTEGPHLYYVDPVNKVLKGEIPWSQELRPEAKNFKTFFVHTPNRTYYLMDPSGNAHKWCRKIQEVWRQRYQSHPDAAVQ
Method in brief: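 Radiometric peptide phosphorylation by PDK1 with inhibitor, 60 min at 30 °C, using 0.01 mM ATP plus 33P-γ-ATP, 0.075 mM peptide, 7.5 mM Mg acetate in Tris-HCl pH 7.5. Phosphoric acid stopped reaction; phosphorylated peptide captured on filter plates and counted by scintillation.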

Chk1 = target: T2, Chk1 (Homo sapiens, UniProt O14757); test: Chk1 kinase assay, phosphorylation of Chktide (33P-ATP filtration); conditions: 0.01 mM ATP, read-out: Chk1 IC50
T2 sequence (O14757 1-476): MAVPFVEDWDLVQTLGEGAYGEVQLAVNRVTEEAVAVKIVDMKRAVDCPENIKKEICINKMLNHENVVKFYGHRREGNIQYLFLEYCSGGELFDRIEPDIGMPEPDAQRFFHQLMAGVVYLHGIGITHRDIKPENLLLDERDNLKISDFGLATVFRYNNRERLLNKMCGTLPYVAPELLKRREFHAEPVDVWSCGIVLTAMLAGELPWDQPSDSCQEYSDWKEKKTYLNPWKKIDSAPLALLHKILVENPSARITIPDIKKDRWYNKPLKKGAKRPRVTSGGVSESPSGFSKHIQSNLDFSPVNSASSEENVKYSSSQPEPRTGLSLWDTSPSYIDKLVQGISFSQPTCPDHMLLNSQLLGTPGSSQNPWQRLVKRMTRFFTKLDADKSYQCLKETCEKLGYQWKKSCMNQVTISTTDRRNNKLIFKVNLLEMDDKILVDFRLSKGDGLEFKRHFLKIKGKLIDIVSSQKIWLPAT
Method in brief: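 GST-Chk1 (11 nM) with inhibitor, 30 μM Chktide peptide, 0.01 mM ATP plus 33P-γ-ATP in 50 mM Hepes pH 7.5 with 0.1 mg/ml BSA, 40 min at 30° C. Stopped with phosphoric acid; phosphorylated peptide captured on filter plates and scintillation-counted.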

| Compound | IC50 ([1]; Table 1) | IC50 (PDK1 enzyme; Table 1) | IC50 (Chk1; Table 1) | IC50 ([1]; Table 2) | IC50 (PDK1 enzyme; Table 2) | IC50 (Chk1; Table 2) |
| --- | --- | --- | --- | --- | --- | --- |
| Cc1cccc(-c2cc(Nc3ccc(C#N)cc3)n3ncnc3n2)c1 [Example 29] | 57.5 µM | > 200 µM | > 200 µM | – | – | – |
| CC[C@H](CO)Nc1cc(NCc2ccccc2)n2ncnc2n1 [Example 79] | – | – | – | 5.05 µM | > 200 µM | > 200 µM |
